Data as given in ChEMBL document CHEMBL2069252, “Pyrazole diaminopyrimidines as dual inhibitors of KDR and Aurora B kinases” (Bioorg Med Chem Lett, 2012).
Converted amounts (≈) assume the structure as drawn.

Tested on: not listed separately
Assay: Aqueous solubility of the compound at pH 7.4 after 24 hrs by chemiluminescent nitrogen detection
Format: physicochemical
Details: not given

| solubility at 24 h | Structure (SMILES) |
| --- | --- |
| 85 µM (≈ 39 µg/mL) | NC(=O)[C@@H]1[C@H](Nc2nc(Nc3cnn(CCN4CCOCC4)c3)ncc2Cl)[C@H]2C=C[C@@H]1C2 |
| 68 µM (≈ 29.2 µg/mL) | NC(=O)[C@@H]1[C@H](Nc2nc(Nc3cnn(C4CCNCC4)c3)ncc2Cl)[C@H]2C=C[C@@H]1C2 |
| 71 µM (≈ 28.7 µg/mL) | NC(=O)[C@@H]1[C@H](Nc2nc(Nc3cnn(CC(=O)O)c3)ncc2Cl)[C@H]2C=C[C@@H]1C2 |

Tested on: not listed separately
Assay: Metabolic stability of the compound in mouse liver microsomes assessed as compound remaining after 30 mins
Format: ADME, Microsome
Details: read-out: Stability

| remaining at 0.5 h | Structure (SMILES) |
| --- | --- |
| 4% | NC(=O)[C@@H]1[C@H](Nc2nc(Nc3cnn(CCN4CCOCC4)c3)ncc2Cl)[C@H]2C=C[C@@H]1C2 |
| 76% | NC(=O)[C@@H]1[C@H](Nc2nc(Nc3cnn(C4CCNCC4)c3)ncc2Cl)[C@H]2C=C[C@@H]1C2 |
| > 95% | NC(=O)[C@@H]1[C@H](Nc2nc(Nc3cnn(CC(=O)O)c3)ncc2Cl)[C@H]2C=C[C@@H]1C2 |

Tested on: not listed separately
Assay: AUC in CD1(ICR) mouse at 10 mg/kg, ip
Format: ADME, organism-based
Design: dose 10 mg/kg, route intraperitoneal
Details: plasma

| AUC | Structure (SMILES) |
| --- | --- |
| 2000 nM·h | NC(=O)[C@@H]1[C@H](Nc2nc(Nc3cnn(C4CCNCC4)c3)ncc2Cl)[C@H]2C=C[C@@H]1C2 |

Target: T1, Vascular endothelial growth factor receptor 2 (Homo sapiens, UniProt P35968)
Assay: Inhibition of KDR by HTRF analysis in presence of 1 mM ATP
Details: not given

T1 sequence (P35968 whole entry): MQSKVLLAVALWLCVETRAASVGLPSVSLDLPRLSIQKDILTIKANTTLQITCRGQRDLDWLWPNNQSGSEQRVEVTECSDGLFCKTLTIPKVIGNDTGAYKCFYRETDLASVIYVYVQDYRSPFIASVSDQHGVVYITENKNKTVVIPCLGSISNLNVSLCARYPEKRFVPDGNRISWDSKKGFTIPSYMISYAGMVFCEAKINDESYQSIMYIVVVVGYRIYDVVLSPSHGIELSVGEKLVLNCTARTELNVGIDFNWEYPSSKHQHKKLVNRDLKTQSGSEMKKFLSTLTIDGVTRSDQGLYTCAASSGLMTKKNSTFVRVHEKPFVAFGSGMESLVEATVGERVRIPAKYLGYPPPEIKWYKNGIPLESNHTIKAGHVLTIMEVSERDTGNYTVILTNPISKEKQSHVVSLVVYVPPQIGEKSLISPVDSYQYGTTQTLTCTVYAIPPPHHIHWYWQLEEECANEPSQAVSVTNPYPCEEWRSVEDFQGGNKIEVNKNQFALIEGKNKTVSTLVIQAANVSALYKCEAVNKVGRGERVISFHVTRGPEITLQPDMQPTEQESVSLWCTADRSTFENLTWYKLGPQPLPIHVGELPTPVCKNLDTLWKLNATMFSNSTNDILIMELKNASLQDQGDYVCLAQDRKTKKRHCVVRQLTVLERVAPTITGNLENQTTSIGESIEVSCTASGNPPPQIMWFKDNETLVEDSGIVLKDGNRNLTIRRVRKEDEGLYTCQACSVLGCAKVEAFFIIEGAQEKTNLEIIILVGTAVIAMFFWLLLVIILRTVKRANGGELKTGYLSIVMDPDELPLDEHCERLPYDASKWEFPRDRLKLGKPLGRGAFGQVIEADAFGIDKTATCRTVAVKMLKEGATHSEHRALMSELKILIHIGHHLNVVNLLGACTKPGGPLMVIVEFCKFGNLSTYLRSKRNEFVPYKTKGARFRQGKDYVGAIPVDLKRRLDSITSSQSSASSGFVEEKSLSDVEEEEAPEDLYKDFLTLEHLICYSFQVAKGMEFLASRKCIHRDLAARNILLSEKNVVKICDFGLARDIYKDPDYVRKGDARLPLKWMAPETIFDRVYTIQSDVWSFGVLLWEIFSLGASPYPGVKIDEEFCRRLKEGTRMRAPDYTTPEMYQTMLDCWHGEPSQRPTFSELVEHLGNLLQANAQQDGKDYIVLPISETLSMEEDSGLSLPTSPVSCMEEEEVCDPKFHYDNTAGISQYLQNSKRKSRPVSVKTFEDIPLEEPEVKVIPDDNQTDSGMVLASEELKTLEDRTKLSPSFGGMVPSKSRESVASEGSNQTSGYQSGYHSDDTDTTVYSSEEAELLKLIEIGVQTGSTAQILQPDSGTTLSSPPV

| IC50 | Structure (SMILES) |
| --- | --- |
| 0.292 µM | Cn1cc(Nc2ncc(C(F)(F)F)c(N[C@H]3[C@@H](C(=O)NC4CC4)[C@@H]4C=C[C@H]3C4)n2)cn1 |
| 0.169 µM | Cn1cc(Nc2ncc(Cl)c(N[C@@H]3CCCC[C@@H]3C(N)=O)n2)cn1 |
| 0.246 µM | Cn1cc(Nc2ncc(Cl)c(N[C@@H]3CCC[C@@H]3C(N)=O)n2)cn1 |
| 0.827 µM | Cn1cc(Nc2ncc(C(F)(F)F)c(N[C@H]3C[C@@H]4CC[C@H]3C4)n2)cn1 |
| 0.153 µM | Cn1cc(Nc2ncc(Cl)c(N[C@@H]3CC[C@@H]3C(N)=O)n2)cn1 |
| 0.009 µM | NC(=O)[C@@H]1[C@H](Nc2nc(Nc3cnn(CCN4CCOCC4)c3)ncc2Cl)[C@H]2C=C[C@@H]1C2 |
| 0.002 µM | NC(=O)[C@@H]1[C@H](Nc2nc(Nc3cnn(C4CCNCC4)c3)ncc2Cl)[C@H]2C=C[C@@H]1C2 |
| 0.001 µM | NC(=O)[C@@H]1[C@H](Nc2nc(Nc3cnn(CC(=O)O)c3)ncc2Cl)[C@H]2C=C[C@@H]1C2 |

Target: T1, Vascular endothelial growth factor receptor 2
Assay: Inhibition of human KDR autophosphorylation expressed in mouse NIH/3T3 cells
Format: cell-based, NIH3T3
Details: not given

| IC50 | Structure (SMILES) |
| --- | --- |
| 0.078 µM | NC(=O)[C@@H]1[C@H](Nc2nc(Nc3cnn(CCN4CCOCC4)c3)ncc2Cl)[C@H]2C=C[C@@H]1C2 |
| 0.055 µM | NC(=O)[C@@H]1[C@H](Nc2nc(Nc3cnn(C4CCNCC4)c3)ncc2Cl)[C@H]2C=C[C@@H]1C2 |
| > 0.316 µM | NC(=O)[C@@H]1[C@H](Nc2nc(Nc3cnn(CC(=O)O)c3)ncc2Cl)[C@H]2C=C[C@@H]1C2 |

Target: Aurora kinase B (Homo sapiens, UniProt Q96GD4)
Assay: Inhibition of Aurora B kinase by HTRF analysis in presence of 1 mM ATP
Details: not given

Aurora kinase B, sequence (Q96GD4 whole entry): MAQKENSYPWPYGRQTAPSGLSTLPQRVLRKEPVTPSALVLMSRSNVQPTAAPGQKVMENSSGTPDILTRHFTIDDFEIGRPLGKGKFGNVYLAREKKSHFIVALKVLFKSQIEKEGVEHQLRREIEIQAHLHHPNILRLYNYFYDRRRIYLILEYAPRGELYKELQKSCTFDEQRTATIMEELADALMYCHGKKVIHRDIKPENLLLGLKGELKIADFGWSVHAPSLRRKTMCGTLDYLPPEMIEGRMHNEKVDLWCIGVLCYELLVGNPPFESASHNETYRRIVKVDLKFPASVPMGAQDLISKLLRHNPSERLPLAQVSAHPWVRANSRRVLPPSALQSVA

| IC50 | Structure (SMILES) |
| --- | --- |
| 0.051 µM | Cn1cc(Nc2ncc(C(F)(F)F)c(N[C@H]3[C@@H](C(=O)NC4CC4)[C@@H]4C=C[C@H]3C4)n2)cn1 |
| 0.135 µM | Cn1cc(Nc2ncc(Cl)c(N[C@@H]3CCCC[C@@H]3C(N)=O)n2)cn1 |
| 0.032 µM | Cn1cc(Nc2ncc(Cl)c(N[C@@H]3CCC[C@@H]3C(N)=O)n2)cn1 |
| 0.061 µM | Cn1cc(Nc2ncc(C(F)(F)F)c(N[C@H]3C[C@@H]4CC[C@H]3C4)n2)cn1 |
| 0.044 µM | Cn1cc(Nc2ncc(Cl)c(N[C@@H]3CC[C@@H]3C(N)=O)n2)cn1 |
| 0.027 µM | NC(=O)[C@@H]1[C@H](Nc2nc(Nc3cnn(CCN4CCOCC4)c3)ncc2Cl)[C@H]2C=C[C@@H]1C2 |
| 0.012 µM | NC(=O)[C@@H]1[C@H](Nc2nc(Nc3cnn(C4CCNCC4)c3)ncc2Cl)[C@H]2C=C[C@@H]1C2 |
| 0.032 µM | NC(=O)[C@@H]1[C@H](Nc2nc(Nc3cnn(CC(=O)O)c3)ncc2Cl)[C@H]2C=C[C@@H]1C2 |

Tested on: NCI-H1299
Assay: Cell cycle arrest in human NCI-H1299 cells assessed as induction of polyploidy after 48 hrs by Hoechst staining-based fluorescence microscopic analysis
Format: functional
Details: NCI-H1299, 48 h

| Structure (SMILES) | EC15 |
| --- | --- |
| Cn1cc(Nc2ncc(C(F)(F)F)c(N[C@H]3[C@@H](C(=O)NC4CC4)[C@@H]4C=C[C@H]3C4)n2)cn1 | < 0.001 µM |
| Cn1cc(Nc2ncc(Cl)c(N[C@@H]3CCC[C@@H]3C(N)=O)n2)cn1 | 0.062 µM |
| Cn1cc(Nc2ncc(C(F)(F)F)c(N[C@H]3C[C@@H]4CC[C@H]3C4)n2)cn1 | > 0.3 µM |
| Cn1cc(Nc2ncc(Cl)c(N[C@@H]3CC[C@@H]3C(N)=O)n2)cn1 | 0.093 µM |
| NC(=O)[C@@H]1[C@H](Nc2nc(Nc3cnn(CCN4CCOCC4)c3)ncc2Cl)[C@H]2C=C[C@@H]1C2 | < 0.003 µM |
| NC(=O)[C@@H]1[C@H](Nc2nc(Nc3cnn(C4CCNCC4)c3)ncc2Cl)[C@H]2C=C[C@@H]1C2 | 0.001 µM |
| NC(=O)[C@@H]1[C@H](Nc2nc(Nc3cnn(CC(=O)O)c3)ncc2Cl)[C@H]2C=C[C@@H]1C2 | 0.028 µM |
